Assay results: patent US6924309B2 (Children, Youth and Women's Health Service Incorporated, priority 1999, dated 2005)
Like-named read-outs stand apart in the source and are kept apart here. Values belong to the molecule of their own block, whether it stands above or below them.

What was measured:
[1] = Reaction with tert-butyl hydroperoxide to the sulfoxide; format: physicochemical; conditions: CH2Cl2, RT, after 9 h
From the text: To further investigate the possible involvement of hydroperoxide-induced sulfoxide formation in the antioxidant behaviour of the γ-thia and β-thia fatty acids 18, 19, 106, 108, 109 and 112, compounds 108 and 109 (in a ratio of 1:1 in CH2Cl2) were allowed to react with tert-butyl hydroperoxide. [drawing 37]
The reaction was monitored by TLC and ^1H NMR analysis. […] The ^1H NMR spectrum of compound 114 contains two multiplets at δ2.88-3.07 and two doublets at δ3.63-3.86 corresponding to the methylene protons on the carbons adjacent to sulfur.

[2] = Petri-dish thin film autoxidation of arachidonic acid with thia fatty acids and sulfides (HPLC)
Method: A stock solution in dichioromethane (2 ml) containing arachidonic acid 1 (18 mg) and 3-[(3Z,6Z)-nona-3,6dienylthio]propionic acid 106 (18 mg) was prepared with lauric acid (18 mg) as an internal standard. Samples of the stock solution (100 μl) were added to glass Petri-dishes followed by ethanol (400 μl). After evaporation of the solvent, a well-distributed thin film was formed on each Petri-dish. The Petri-dishes were placed in a desiccator, which was then evacuated, filled with oxygen and stored in the darkness. Dishes were removed from the desiccator after 1, 2, 3, 5 and 7 days. The mixture on each dish was redissolved in diethyl ether and transferred to a 2 ml vial. After evaporation of the solvent, the residue was dissolved in the HPLC mobile phase (100 μl) and 10% of the solution was analysed by HPLC using a reverse phase column (octadecylsilane) (4.6 mm×250 mm, 3 μm) and a refractive index detector.
Autoxidation of arachidonic acid was conducted in the presence of compound 19 and lauric acid. Stock solutions of arachidonic acid, compound 19 and lauric acid in dichloromethane with equal concentrations were added to a 25 ml round-bottomed flask, and the solvent was evaporated to leave a thin film on the internal surface of the flask. The flask was then filled with oxygen and kept in the dark. The percentages of arachidonic acid and compound 19 remaining after 7 days were measured by HPLC. The same assay was carried out simultaneously with several flasks but the results were not reproducible. The variation was attributed to differences in oxygen concentration and the surface area of the thin films formed in the flasks. Therefore, in order to establish a reproducible assay for the analysis of the autoxidation of arachidonic acid, Petri-dishes with uniform size (80 mm in diameter) were used instead of flasks for thin film formation and the oxidation was carried out by placing the Petri-dishes in a dessicator filled with oxygen. To assess this method, thin firms of arachidonic acid with lauric acid as a standard were prepared on six Petri-dishes using identical treatment, and then subjected to oxidation in the same dessicator filled with oxygen. After 24 h, the percentage of arachidonic acid recovered following autoxidation in each Petri-dish was determined by HPLC. […] The advantage of using a Petri-dish over a flask is that the thin films on each Petri-dish are spread over the same area, and each Petri-dish is exposed to oxygen to the same extent.
Using the Petri-dish assay method, the effects of the thia PUFAs and sulfides 106 and 108-111, along with compounds 18, 19 and 3-[(Z,Z,Z)-(octadeca-9,12,15-trienylthio)] propionic acid 112 which were available in the laboratory, on the autoxidation of arachidonic acid, were examined. In addition, the stability of these compounds in the presence of arachidonic acid was also investigated. Arachidonic acid and lauric acid as a standard were mixed with each sulfur compound at different ratios and the mixtures were subjected to thin film autoxidation. The mixtures were analysed by HPLC after 1,2,3,5 and 7 days.

[3] = Paw oedema; conditions: in vivo
[4] = target: T1, 15-LO (Glycine max, UniProt P08170); test: Effect on 15-LO catalysed oxidation of arachidonic acid; format: biochemical, soybean; conditions: for Ki: mixed inhibition pattern
T1 construct: purchased Sigma Chemical Company
T1 sequence (P08170 1-839): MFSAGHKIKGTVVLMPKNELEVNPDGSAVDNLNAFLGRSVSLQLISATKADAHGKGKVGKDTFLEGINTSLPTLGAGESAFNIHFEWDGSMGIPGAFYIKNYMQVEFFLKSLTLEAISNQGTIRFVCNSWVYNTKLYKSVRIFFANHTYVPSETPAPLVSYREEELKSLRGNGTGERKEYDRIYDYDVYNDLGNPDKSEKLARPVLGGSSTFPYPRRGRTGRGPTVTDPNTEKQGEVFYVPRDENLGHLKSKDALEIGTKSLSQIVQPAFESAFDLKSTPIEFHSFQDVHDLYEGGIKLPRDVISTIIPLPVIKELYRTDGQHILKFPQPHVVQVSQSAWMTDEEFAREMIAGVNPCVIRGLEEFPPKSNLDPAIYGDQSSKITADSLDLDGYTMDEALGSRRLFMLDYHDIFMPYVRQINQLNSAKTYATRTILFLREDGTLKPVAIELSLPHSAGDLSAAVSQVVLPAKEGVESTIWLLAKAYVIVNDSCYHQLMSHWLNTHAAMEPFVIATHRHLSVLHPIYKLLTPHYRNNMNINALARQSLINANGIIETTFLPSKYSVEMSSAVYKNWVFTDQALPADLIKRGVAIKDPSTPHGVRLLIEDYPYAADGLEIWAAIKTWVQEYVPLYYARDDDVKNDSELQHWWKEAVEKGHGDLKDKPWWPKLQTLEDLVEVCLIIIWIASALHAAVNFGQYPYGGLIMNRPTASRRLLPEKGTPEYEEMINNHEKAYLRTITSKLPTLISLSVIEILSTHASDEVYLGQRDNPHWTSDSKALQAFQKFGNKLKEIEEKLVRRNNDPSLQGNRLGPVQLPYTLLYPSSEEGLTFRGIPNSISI

[5] = test system: 5-LO; test: Effect on 5-LO catalysed oxidation of arachidonic acid; format: biochemical
[6] = target: T2, 12-LO (Sus scrofa, UniProt P16469); test: Effect on 12-LO catalysed oxidation of arachidonic acid; format: biochemical, porcine
T2 construct: purchased Cayman Chemical Company
T2 sequence (P16469 1-663): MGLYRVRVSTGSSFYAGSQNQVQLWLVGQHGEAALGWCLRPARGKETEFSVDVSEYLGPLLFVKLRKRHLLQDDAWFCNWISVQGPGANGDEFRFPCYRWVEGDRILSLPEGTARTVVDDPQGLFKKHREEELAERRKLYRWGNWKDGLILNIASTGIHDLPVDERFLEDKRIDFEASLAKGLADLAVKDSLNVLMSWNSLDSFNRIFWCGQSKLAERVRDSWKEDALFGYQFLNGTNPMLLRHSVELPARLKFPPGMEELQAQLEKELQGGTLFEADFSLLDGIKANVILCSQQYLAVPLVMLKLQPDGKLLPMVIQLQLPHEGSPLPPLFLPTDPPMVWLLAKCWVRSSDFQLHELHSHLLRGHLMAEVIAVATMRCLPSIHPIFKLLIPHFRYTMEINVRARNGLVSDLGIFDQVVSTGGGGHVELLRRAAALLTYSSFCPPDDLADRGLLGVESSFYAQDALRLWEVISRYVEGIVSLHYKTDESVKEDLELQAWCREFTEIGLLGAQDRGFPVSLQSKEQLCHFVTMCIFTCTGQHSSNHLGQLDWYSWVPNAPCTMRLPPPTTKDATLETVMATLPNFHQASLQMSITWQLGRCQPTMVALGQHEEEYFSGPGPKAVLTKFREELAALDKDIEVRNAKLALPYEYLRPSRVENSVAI

[7] = test system: IFN-γ; test: IFN-γ production by human peripheral blood leukocytes; format: cell-based; conditions: Leukocyte, stimulus PHA, read-out: % Inhibition (compared to control) of IFN-γ
Method: (§1) The effects of the nitroalkanes (Lx1-Lx5) on lymphocyte activation and cytokine production were examined. The ability of the PUFA to suppress mitogen-induced proliferation in response to PHA and S. aureus, and to inhibit cytokine production (TNFα and IFNγ), was assessed.

[8] = test system: TNF-α; test: TNF-α production by human peripheral blood leukocytes; format: cell-based; conditions: Leukocyte, stimulus S. aureus, read-out: % Inhibition (compared to control) of TNF-α
Method: as §1

[9] = test system: Plasmodium falciparum isolates 3D7, FC27, K+; test: Radiometric (3H-hypoxanthine) assay on asexual blood stages of P. falciparum; format: cell-based
Method: Using the radiometric assay^(36), the effects of the Lx compounds were examined for antimalarial activity. The Plasmodium falciparum isolates used were 3D7, FC27, K^1 and K^+. These were maintained in human blood group O^+ erythrocytes essentially as described previously using RPM-1640 (HEPES modification) supplemented with 0.25% D-glucose, 0.2% Tess buffer (Sigma Chemical Co, Lt Louis, Mo.) and 10% heat inactivated (56° C., 20 min) human blood group AB serum. Cultures were maintained in tissue culture flasks (Corning, N.Y.) at 37° C. under an atmosphere of 1% 2, 5% CO2 in N2. P. falciparum cultures containing approximately 3.0:% parasitaemia were adjusted to 1×10^8 erythrocytes/ml. To 50 μl of the parasite-erythrocyte culture (5×10^6 erythrocytes) in wells of 96-well microdilution plates wvas added 50 μl of the designated concentration of fatty acid or equivalent amounts of solutions or media. The treated cultures were incubated at 37° C. for 4 h and then pulsed with 50 μl (2.5 μCi) of ^3H-hypoxanthine. After a further 18 h incubation the parasites-erythrocytes were harvested onto glass fibre filter papers using a cell harvester. The amount of radioactivity incorporated was measured in a β-counter. The results have been expressed as % inhibition of parasite growth i.e. the dpm in the fatty acid diluent−dpm in the fatty acid treated cultures/dpm in diluent×100.

[10] = test system: human neutrophils; test: AA-enhanced chemiluminescence in human neutrophils; format: cell-based; conditions: neutrophils pretreated with compound
Method: Arachidonic acid (AA) is a natural agonist which stimulates oxygen radical production in neutrophils leading to tissue damage during inflammation. Studies were conducted to examine whether or not the Lx compounds could antagonise the effects of AA. Neutrophils were pretreated with Lx compounds and then examined for chemiluminescence response to AA addition. […] The effect of Lx compounds on AA-enhanced chemiluminescence in human neutrophils is shown graphically in FIG. 11.

[11] = ratio arachidonic acid:compound 1:1, 1 day
[12] = ratio arachidonic acid:compound 1:1, 2 days
[13] = ratio arachidonic acid:compound 1:1, 3 days
[14] = ratio arachidonic acid:compound 1:1, 5 days

Conversion to the sulfoxide by tert-butyl hydroperoxide [1]: completely converted
Compound: CCCCCCCCCCCCCCSCCC(=O)O [Compound 108]
Antioxidant effect on autoxidation of arachidonic acid (in words) [2]: effective antioxidants
Arachidonic acid (%) recovered following autoxidation in the presence of the compound [2, 11]: 98%
Compound (%) recovered following autoxidation with arachidonic acid [2, 11]: 99%
Arachidonic acid (%) recovered following autoxidation in the presence of the compound [2, 12]: 93%
Compound (%) recovered following autoxidation with arachidonic acid [2, 12]: 91%
Arachidonic acid (%) recovered following autoxidation in the presence of the compound [2, 13]: 79%
Compound (%) recovered following autoxidation with arachidonic acid [2, 13]: 86%
Arachidonic acid (%) recovered following autoxidation in the presence of the compound [2, 14]: 30%
Compound (%) recovered following autoxidation with arachidonic acid [2, 14]: 44%
Compound (%) recovered following autoxidation with arachidonic acid ([2]; ratio arachidonic acid:compound 1:1, 7 days): 37%

Compound: CCCCCCCCCCCCCCCCCC[N+](=O)[O-] [Lx1, 1-Nitrooctadecane]
Effect in paw oedema [3]: inflammatory
Effect on 15-LO catalysed oxidation of AA [4]: Nil
Effect on 5-LO catalysed oxidation of AA [5]: Nil
Effect on 12-LO catalysed oxidation of AA [6]: Nil

Effect on 15-LO catalysed oxidation of AA [4]: Nil
Compound: CC/C=C\C/C=C\C/C=C\CCCCCCCC[N+](=O)[O-] [Lx2, (z,z,z)-1-Nitro-9,12,15-octadecatriene]
inhibition at 20 µM [7]: 40.4%
inhibition at 20 µM [8]: 43.7%
Antimalarial activity (in words) [9]: most promising

Compound: CCCCC/C=C\C/C=C\C/C=C\C/C=C\CCCC[N+](=O)[O-] [Lx4, (a11-z)-1-Nitro-5,8,11,14-eicosatetraene]
inhibition at 20 µM [7]: 79.8%
Effect on 15-LO catalysed oxidation of AA [4]: Nil
Effect on 5-LO catalysed oxidation of AA [5]: Nil
inhibition at 20 µM [8]: 34%
Antimalarial activity on P. falciparum 3D7 (FIG. 1, in words) ([9]; isolate 3D7): activity is lost
Effect on 12-LO catalysed oxidation of AA [6]: Nil

Compound: CCCCCCCCCCCCCCCCCC(CCC(=O)O)[N+](=O)[O-] (stereo not drawn) [Lx6, 4-Nitrohenicosanoic acid]
Effect on 15-LO catalysed oxidation of AA [4]: Activatory
Effect on 15-LO catalysed oxidation of AA ([4]; listed as 6a): not 15LO
Effect on 5-LO catalysed oxidation of AA [5]: Inhibitory
Effect on 5-LO catalysed oxidation of AA ([5]; listed as 4-nitrohenicosanoic acid): selective inhibitors
Effect on 5-LO catalysed oxidation of AA ([5]; listed as 6a): inhibiting 5-LO
IC50 ([5]; read-out: IC50, 5-LO catalysed oxidation of AA): 60 µM
Effect on 12-LO catalysed oxidation of AA [6]: Activatory
Effect on 12-LO catalysed oxidation of AA ([6]; listed as 6a): Neither 8a nor 6a inhibits 12-LO

Compound: CCCCCCCCCCCCCCCCCC(CCC(=O)O)(CCC(=O)O)[N+](=O)[O-] [Lx8, 3-Heptadecyl-3-nitropentane-1,5-dicarboxylic acid]
Effect on 15-LO catalysed oxidation of AA [4]: Inhibitory
Effect on 15-LO catalysed oxidation of AA ([4]; listed as 3-heptadecyl-3-nitropentane-1,5-dicarboxylic acid): selective inhibitors
Effect on 15-LO catalysed oxidation of AA ([4]; listed as 8a): inhibitory effect
Ki ([4]; read-out: Ki, 15-LO catalysed oxidation of arachidonic acid): 27.4 µM
Ki ([4]; read-out: Kl (second inhibitor constant; printed Ki in Table 3), 15-LO catalysed oxidation of arachidonic acid): 55.2 µM
Effect on 5-LO catalysed oxidation of AA [5]: Nil
Effect on 12-LO catalysed oxidation of AA [6]: Activatory
Effect on 12-LO catalysed oxidation of AA ([6]; listed as 8a): Neither 8a nor 6a inhibits 12-LO

Compound: CCCCC/C=C\C/C=C\C/C=C\C/C=C\CCCC(CCC(=O)O)(CCC(=O)O)[N+](=O)[O-] [Lx9, 3-[(a11-Z)-Nonadeca-4,7,10,13-tetraenyl] 4-nitroheptane-1,7-dicarboxylic acid]
Inhibition of AA-stimulated oxygen radical production (chemiluminescence) [10]: particularly evident
Effect on 15-LO catalysed oxidation of AA [4]: Nil
Effect on 5-LO catalysed oxidation of AA [5]: Activatory
Antimalarial activity (in words) [9]: did not have appreciable antimalarial activity
Effect on 12-LO catalysed oxidation of AA [6]: Inhibitory
Effect on 12-LO catalysed oxidation of AA ([6]; listed as 3-(all-Z)-nonadeca4,7,10,13-tetraeny]-3-nitropertane-1,5-dicarboxylic acid): selective inhibitors
Effect on 12-LO catalysed oxidation of AA ([6]; listed as 8b): significant inhibitory effect
